The source of these data is US20250152585A1, “PHARMACEUTICAL COMPOUND” (Duke Street Bio Limited, priority 2022, published 2025).

In the first assay the target is T1, N-terminally FLAG-tagged PARP2 (amino acids 1-583) (Homo sapiens, UniProt Q9UGN5).
T1 construct: N-terminally FLAG-tagged PARP2 (amino acids 1-583)
T1 sequence (Q9UGN5 whole entry, the tested form may be a part): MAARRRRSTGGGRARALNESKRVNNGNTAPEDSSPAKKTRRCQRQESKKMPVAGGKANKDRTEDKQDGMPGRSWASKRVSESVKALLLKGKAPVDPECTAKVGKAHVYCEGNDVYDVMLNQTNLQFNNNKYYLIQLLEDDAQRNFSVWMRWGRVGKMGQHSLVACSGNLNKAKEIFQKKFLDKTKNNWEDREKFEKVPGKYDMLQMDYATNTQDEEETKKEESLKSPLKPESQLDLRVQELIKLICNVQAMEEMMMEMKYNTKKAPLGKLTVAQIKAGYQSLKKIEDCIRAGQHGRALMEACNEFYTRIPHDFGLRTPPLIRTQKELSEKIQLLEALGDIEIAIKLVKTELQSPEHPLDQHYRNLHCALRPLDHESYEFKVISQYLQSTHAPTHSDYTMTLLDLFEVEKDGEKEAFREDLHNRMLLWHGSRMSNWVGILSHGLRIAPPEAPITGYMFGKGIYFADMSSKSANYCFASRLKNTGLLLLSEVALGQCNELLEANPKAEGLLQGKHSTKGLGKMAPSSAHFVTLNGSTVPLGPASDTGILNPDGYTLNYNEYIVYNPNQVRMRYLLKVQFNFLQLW
The experiment in a line: PARP2 probe displacement HTRF assay. In kind it is binding. The note with it: binned Kd, probe displacement HTRF. The protocol: Data analysis was performed identical as for PARP1.
For orientation: TR-FRET usually uses a lanthanide donor and a delayed reading to cut background.
As to `CC(=O)NC(=O)c1ccc(N2CCC(N3CCC(c4cc5ccccc5c(=O)[nH]4)C3)CC2)cc1` (single isomer, unassigned) [Compound 341b], the Kd is 0.1 to 1 µM.
Same read-out and setting: next, `CS(=O)(=O)NC(=O)c1ccc(N2CCC(N3CCC(c4cc5ccccc5c(=O)[nH]4)C3)CC2)cc1` (single isomer, unassigned) [Compound 342a]: 0.1 to 1 µM.
`CS(=O)(=O)NC(=O)c1ccc(N2CCC(N3CCC(c4cc5ccccc5c(=O)[nH]4)C3)CC2)cc1` (single isomer, unassigned) [Compound 342b]: the Kd is 0.01 to 0.1 µM.
As for `CNC(=O)c1ccc(N2CCC(N3CCC(c4cc5ncc(Cl)cc5c(=O)[nH]4)C3)CC2)c(F)n1` (single isomer, unassigned) [Compound 344a], the Kd was over 10 µM.
The same measure, in the same setting: next, `CNC(=O)c1ccc(N2CCC(N3CCC(c4cc5cccc(F)c5c(=O)[nH]4)C3)CC2)c(C#N)c1` (single isomer, unassigned) [Compound 345a]: 0.1 to 1 µM; `CNS(=O)(=O)c1ccc(N2CCC(N3CCC(c4cc5ccccc5c(=O)[nH]4)C3)CC2)cc1` (single isomer, unassigned) [Compound 346a]: 1 to 10 µM.
Same read-out and setting: next, `O=C(NC1CC1)c1ccc(N2CCC(N3CCC(c4cc5cccc(F)c5c(=O)[nH]4)C3)CC2)c(F)n1` (single isomer, unassigned) [Compound 349a]: over 10 µM.
Compound `CCc1ccc(C2CCN(C3CCN(c4ccc(C(=O)NC)cc4)CC3)C2)[nH]c1=O` (single isomer, unassigned) [Compound 355a] gave a Kd of 1 to 10 µM.
On the same count and under the same terms, next, `CCc1ccc(C2CCN(C3CCN(c4ccc(C(=O)NC)cc4)CC3)C2)[nH]c1=O` (single isomer, unassigned) [Compound 355b]: 0.1 to 1 µM; `N#Cc1ccc(N2CCC(N3CCC(c4cc5cccc(F)c5c(=O)[nH]4)C3)CC2)c(F)c1` (single isomer, unassigned) [Compound 356b]: 1 to 10 µM; `CNC(=O)c1ccc(N2CCC(N3CCC(c4cc5cc(O)ccc5c(=O)[nH]4)C3)CC2)cn1` (single isomer, unassigned) [Compound 357b]: 1 to 10 µM.

The target in another assay is T2, full length N-terminally FLAG-tagged PARP1 (Homo sapiens, UniProt P09874). In words: PARP1 probe displacement HTRF assay. Particulars: PARP1 over PARP2, ratio Kd (PARP2)/Kd (PARP1), probe displacement HTRF.
T2 sequence (P09874 whole entry): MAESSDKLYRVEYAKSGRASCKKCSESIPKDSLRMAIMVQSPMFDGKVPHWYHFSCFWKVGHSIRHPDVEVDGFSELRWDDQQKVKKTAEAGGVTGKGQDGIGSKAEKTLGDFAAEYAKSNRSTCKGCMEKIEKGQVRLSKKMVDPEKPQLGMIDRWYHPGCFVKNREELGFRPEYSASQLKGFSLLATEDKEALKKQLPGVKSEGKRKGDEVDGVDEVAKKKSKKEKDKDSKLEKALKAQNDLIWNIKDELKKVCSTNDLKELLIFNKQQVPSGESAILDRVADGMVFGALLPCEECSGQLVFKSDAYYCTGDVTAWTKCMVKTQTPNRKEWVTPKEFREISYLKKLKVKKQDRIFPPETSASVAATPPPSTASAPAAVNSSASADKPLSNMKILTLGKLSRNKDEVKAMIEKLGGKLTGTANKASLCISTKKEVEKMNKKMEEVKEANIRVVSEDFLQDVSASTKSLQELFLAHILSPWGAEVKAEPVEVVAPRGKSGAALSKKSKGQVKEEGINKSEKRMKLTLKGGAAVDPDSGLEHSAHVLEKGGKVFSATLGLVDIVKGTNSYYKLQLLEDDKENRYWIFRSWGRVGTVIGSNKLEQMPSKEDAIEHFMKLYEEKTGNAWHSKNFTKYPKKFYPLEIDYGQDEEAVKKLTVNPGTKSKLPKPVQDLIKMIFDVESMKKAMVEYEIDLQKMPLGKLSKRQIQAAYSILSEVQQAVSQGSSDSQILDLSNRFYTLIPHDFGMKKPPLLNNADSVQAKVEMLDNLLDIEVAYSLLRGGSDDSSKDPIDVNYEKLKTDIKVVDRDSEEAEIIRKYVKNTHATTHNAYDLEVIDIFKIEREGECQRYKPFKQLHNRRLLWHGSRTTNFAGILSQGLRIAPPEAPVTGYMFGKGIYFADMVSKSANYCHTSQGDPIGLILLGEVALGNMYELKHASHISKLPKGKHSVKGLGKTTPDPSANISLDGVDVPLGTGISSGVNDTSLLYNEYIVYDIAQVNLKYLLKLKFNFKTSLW
Turning to `CC(=O)NC(=O)c1ccc(N2CCC(N3CCC(c4cc5ccccc5c(=O)[nH]4)C3)CC2)cc1` (single isomer, unassigned) [Compound 341b], the Selectivity entry is listed as “+ (+ indicates a value of 10 to less than 50)”.
On the same count and under the same terms, next, `CS(=O)(=O)NC(=O)c1ccc(N2CCC(N3CCC(c4cc5ccccc5c(=O)[nH]4)C3)CC2)cc1` (single isomer, unassigned) [Compound 342a]: “− (− indicates a value of less than 10)”; `CS(=O)(=O)NC(=O)c1ccc(N2CCC(N3CCC(c4cc5ccccc5c(=O)[nH]4)C3)CC2)cc1` (single isomer, unassigned) [Compound 342b]: “+ (+ indicates a value of 10 to less than 50)”; `CNC(=O)c1ccc(N2CCC(N3CCC(c4cc5ncc(Cl)cc5c(=O)[nH]4)C3)CC2)c(F)n1` (single isomer, unassigned) [Compound 344a]: “+++ (+++ indicate a value of at least 100)”.
The same measure, in the same setting: next, `CNC(=O)c1ccc(N2CCC(N3CCC(c4cc5cccc(F)c5c(=O)[nH]4)C3)CC2)c(C#N)c1` (single isomer, unassigned) [Compound 345a]: “+++ (+++ indicate a value of at least 100)”.
Still for that read-out and setting: next, `CNS(=O)(=O)c1ccc(N2CCC(N3CCC(c4cc5ccccc5c(=O)[nH]4)C3)CC2)cc1` (single isomer, unassigned) [Compound 346a]: “+++ (+++ indicate a value of at least 100)”; `O=C(NC1CC1)c1ccc(N2CCC(N3CCC(c4cc5cccc(F)c5c(=O)[nH]4)C3)CC2)c(F)n1` (single isomer, unassigned) [Compound 349a]: “+++ (+++ indicate a value of at least 100)”.
With `CCc1ccc(C2CCN(C3CCN(c4ccc(C(=O)NC)cc4)CC3)C2)[nH]c1=O` (single isomer, unassigned) [Compound 355a], the Selectivity entry is listed as “− (− indicates a value of less than 10)”.
Same read-out and setting: next, `CCc1ccc(C2CCN(C3CCN(c4ccc(C(=O)NC)cc4)CC3)C2)[nH]c1=O` (single isomer, unassigned) [Compound 355b]: “+++ (+++ indicate a value of at least 100)”; `N#Cc1ccc(N2CCC(N3CCC(c4cc5cccc(F)c5c(=O)[nH]4)C3)CC2)c(F)c1` (single isomer, unassigned) [Compound 356b]: “+ (+ indicates a value of 10 to less than 50)”.
Still for that read-out and setting: next, `CNC(=O)c1ccc(N2CCC(N3CCC(c4cc5cc(O)ccc5c(=O)[nH]4)C3)CC2)cn1` (single isomer, unassigned) [Compound 357b]: “+++ (+++ indicate a value of at least 100)”.

Staying with this assay, now noted: read-out: PARP1 HTRF; binned Kd, probe displacement HTRF.
Turning to `CC(=O)NC(=O)c1ccc(N2CCC(N3CCC(c4cc5ccccc5c(=O)[nH]4)C3)CC2)cc1` (single isomer, unassigned) [Compound 341b], the Kd is 0.01 to 0.1 µM.
The same measure, in the same setting: next, `CS(=O)(=O)NC(=O)c1ccc(N2CCC(N3CCC(c4cc5ccccc5c(=O)[nH]4)C3)CC2)cc1` (single isomer, unassigned) [Compound 342a]: 0.1 to 1 µM; `CS(=O)(=O)NC(=O)c1ccc(N2CCC(N3CCC(c4cc5ccccc5c(=O)[nH]4)C3)CC2)cc1` (single isomer, unassigned) [Compound 342b]: under 0.01 µM.
On the same count and under the same terms, next, `CNC(=O)c1ccc(N2CCC(N3CCC(c4cc5ncc(Cl)cc5c(=O)[nH]4)C3)CC2)c(F)n1` (single isomer, unassigned) [Compound 344a]: under 0.01 µM; `CNC(=O)c1ccc(N2CCC(N3CCC(c4cc5cccc(F)c5c(=O)[nH]4)C3)CC2)c(C#N)c1` (single isomer, unassigned) [Compound 345a]: under 0.01 µM.
On the same count and under the same terms, next, `CNS(=O)(=O)c1ccc(N2CCC(N3CCC(c4cc5ccccc5c(=O)[nH]4)C3)CC2)cc1` (single isomer, unassigned) [Compound 346a]: under 0.01 µM.
`O=C(NC1CC1)c1ccc(N2CCC(N3CCC(c4cc5cccc(F)c5c(=O)[nH]4)C3)CC2)c(F)n1` (single isomer, unassigned) [Compound 349a]: the Kd was under 0.01 µM.
On the same count and under the same terms, next, `CCc1ccc(C2CCN(C3CCN(c4ccc(C(=O)NC)cc4)CC3)C2)[nH]c1=O` (single isomer, unassigned) [Compound 355a]: 0.1 to 1 µM; `CCc1ccc(C2CCN(C3CCN(c4ccc(C(=O)NC)cc4)CC3)C2)[nH]c1=O` (single isomer, unassigned) [Compound 355b]: under 0.01 µM.
`N#Cc1ccc(N2CCC(N3CCC(c4cc5cccc(F)c5c(=O)[nH]4)C3)CC2)c(F)c1` (single isomer, unassigned) [Compound 356b]: the Kd was 0.1 to 1 µM.
On the same count and under the same terms, next, `CNC(=O)c1ccc(N2CCC(N3CCC(c4cc5cc(O)ccc5c(=O)[nH]4)C3)CC2)cn1` (single isomer, unassigned) [Compound 357b]: under 0.01 µM.

The next assay addresses T2, full length N-terminally FLAG-tagged PARP1. In words: PARP1 biochemical DELFIA assay (auto-PARylation). More on the design: recombinant full length human N-terminally FLAG-tagged PARP1. Particulars: binned IC50, biochemical auto-PARylation assay.
In the case of `CC(=O)NC(=O)c1ccc(N2CCC(N3CCC(c4cc5ccccc5c(=O)[nH]4)C3)CC2)cc1` (single isomer, unassigned) [Compound 341b], the IC50 was in the range of 0.01 to 0.1 µM.
The same measure, in the same setting: next, `CS(=O)(=O)NC(=O)c1ccc(N2CCC(N3CCC(c4cc5ccccc5c(=O)[nH]4)C3)CC2)cc1` (single isomer, unassigned) [Compound 342a]: 0.1 to 1 µM; `CS(=O)(=O)NC(=O)c1ccc(N2CCC(N3CCC(c4cc5ccccc5c(=O)[nH]4)C3)CC2)cc1` (single isomer, unassigned) [Compound 342b]: under 0.01 µM; `CNC(=O)c1ccc(N2CCC(N3CCC(c4cc5ncc(Cl)cc5c(=O)[nH]4)C3)CC2)c(F)n1` (single isomer, unassigned) [Compound 344a]: under 0.01 µM.
Same read-out and setting: next, `CNC(=O)c1ccc(N2CCC(N3CCC(c4cc5cccc(F)c5c(=O)[nH]4)C3)CC2)c(C#N)c1` (single isomer, unassigned) [Compound 345a]: under 0.01 µM.
Consider `CNS(=O)(=O)c1ccc(N2CCC(N3CCC(c4cc5ccccc5c(=O)[nH]4)C3)CC2)cc1` (single isomer, unassigned) [Compound 346a], for which the IC50 is under 0.01 µM.
On the same count and under the same terms, next, `O=C(NC1CC1)c1ccc(N2CCC(N3CCC(c4cc5cccc(F)c5c(=O)[nH]4)C3)CC2)c(F)n1` (single isomer, unassigned) [Compound 349a]: under 0.01 µM.
Still for that read-out and setting: next, `CCc1ccc(C2CCN(C3CCN(c4ccc(C(=O)NC)cc4)CC3)C2)[nH]c1=O` (single isomer, unassigned) [Compound 355a]: 0.1 to 1 µM; `CCc1ccc(C2CCN(C3CCN(c4ccc(C(=O)NC)cc4)CC3)C2)[nH]c1=O` (single isomer, unassigned) [Compound 355b]: under 0.01 µM.
Same read-out and setting: next, `N#Cc1ccc(N2CCC(N3CCC(c4cc5cccc(F)c5c(=O)[nH]4)C3)CC2)c(F)c1` (single isomer, unassigned) [Compound 356b]: 0.1 to 1 µM; `CNC(=O)c1ccc(N2CCC(N3CCC(c4cc5cc(O)ccc5c(=O)[nH]4)C3)CC2)cn1` (single isomer, unassigned) [Compound 357b]: 0.01 to 0.1 µM.

A word on the IC50: it is the midpoint of a concentration-inhibition curve.
